This is an account of results in patent US12624018B1, “Inhibitors of RIPK2 and medical uses thereof” (Odyssey Therapeutics, Inc., priority 2022, dated 2026).

The structures appear in SMILES notation. pIC50: −log10 of the molar value.

In one experiment the test system is human NOD2 signaling. Description: Inhibition of human NOD2 signaling in HEK-Blue-hNOD2 cells (L18-MDP stimulated, SEAP reporter). It counts as cell-based. As to conditions: Homo sapiens, HEK-Blue hNOD2, HEK-Blue-hNOD2 cells, NOD2 ligand stimulation, SEAP reporter; read-out: hNOD2 IC50. An outline of the steps: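 Read-out is SEAP absorbance at 620 nm after 3 h QUANTI-Blue development of supernatant from HEK293 cells carrying NOD2 and a SEAP reporter (12500/well). Cells got compound (10 points, 3-fold dilutions) and 0.5 ng/mL L18-MDP for 24 h at 37 °C; percent inhibition vs stimulated/unstimulated controls, 4-parameter IC50.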

The target in experiment [1] is T1, RIPK2 and XIAP protein-protein interaction (Homo sapiens, UniProt O43353).
T1 construct: the N-terminus of full-length RIPK2 was appended with the HaloTag fusion protein; expressed in transfected cells; host or cells: HEK293T
Description: Inhibition of the interaction of RIPK2 with XIAP (NanoBRET in HEK293T cells). It counts as cell-based. Conditions: RIPK2 HaloTag / XIAP NanoLuc, read-out: NanoBRET Scaffolding IC50. The text has this: An assay measuring the RIPK2 and XIAP protein-protein interaction was generated using the NanoBRET protein:protein interaction system (Promega) which measures the energy transfer from a bioluminescent protein donor (NanoLuc fusion protein) to a fluorescent protein acceptor (Halotag fusion protein). In this assay, the C-terminus of full-length XIAP was appended with the NanoLuc fusion protein and the N-terminus of full-length RIPK2 was appended with the HaloTag fusion protein. Assay medium consisted of Opti-MEM I reduced serum medium with no phenol red plus 4% heat inactivated FBS. Transfection reagents were combined in a microfuge tube as follows: 400 μL of assay medium, 8 μL of vector with N-terminus of RIPK2 HaloTag fusion protein (vector concentration at 1 μg/μL), 0.8 μL of vector with C-terminus of XIAP NanoLuc fusion protein (vector concentration at 1 μg/μL), and 24 μL of FuGENE HD transfection reagent (Promega, catalogue number E2312). […] Test compounds were prepared into a 10 mM DMSO solution and were serially diluted into 10 points using a 3-fold dilution in a 384 well plate using a TECAN EV0200.
Method: HEK293T cells were transfected with the RIPK2 HaloTag fusion and XIAP NanoLuc fusion vectors in suspension. […] Transfection reagents were pre-mixed and incubated at room temperature for 30 minutes. Then the total transfection reagent mixture was added dropwise to the 16 mL cell suspension and mixed gently. 40 μL of the cells and transfection reagent suspension was plated into a white 384 well plate and incubated at 37° C. in a CO2 incubator for 24 hours. […] Lastly, a 3× solution of NanoBRET Nano-Glo substrate in Opti-MEM I reduced serum media (no phenol red; 20 μL total volume) was added to each well and incubated for 2-3 minutes at room temperature. The plate was then measured using 460 nm filter (donor emission) and 618 nm filter (acceptor emission) in an EnVision multimode plate reader (PerkinElmer). The NanoBRET ratio values were determined by dividing the acceptor emission value by the donor emission value for each sample.

Another experiment concerns the target T2, RIPK2 enzyme (Homo sapiens, UniProt O43353).
T2 construct: purchased Carna 09-128
The experiment is described as follows: RIPK2 inhibition (ADP-Glo Kinase Assay). The experiment is classed as biochemical. As to conditions: RIPK2 5 nM, ATP 150 μM, MBP substrate, read-out: RIPK2 IC50. An outline of the steps: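 Swine MBP substrate; compound and 5 nM RIPK2 first mixed for 30 min at room temperature; buffer pH 7.5 HEPES 50 mM with 10 mM MgCl2, 2 mM DTT, 1 mM EGTA, Brij-35, BSA.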

T2 sequence (O43353 1-299 limits assumed): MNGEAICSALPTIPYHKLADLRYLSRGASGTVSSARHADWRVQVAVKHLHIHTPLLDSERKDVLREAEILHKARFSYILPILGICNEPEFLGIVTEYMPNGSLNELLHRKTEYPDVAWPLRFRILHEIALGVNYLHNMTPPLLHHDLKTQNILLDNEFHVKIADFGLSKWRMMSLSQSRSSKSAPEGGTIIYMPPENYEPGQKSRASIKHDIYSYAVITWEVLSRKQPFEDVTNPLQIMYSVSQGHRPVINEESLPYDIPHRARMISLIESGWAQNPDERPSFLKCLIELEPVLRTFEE
T1 sequence (O43353 whole entry, the tested form may be a part): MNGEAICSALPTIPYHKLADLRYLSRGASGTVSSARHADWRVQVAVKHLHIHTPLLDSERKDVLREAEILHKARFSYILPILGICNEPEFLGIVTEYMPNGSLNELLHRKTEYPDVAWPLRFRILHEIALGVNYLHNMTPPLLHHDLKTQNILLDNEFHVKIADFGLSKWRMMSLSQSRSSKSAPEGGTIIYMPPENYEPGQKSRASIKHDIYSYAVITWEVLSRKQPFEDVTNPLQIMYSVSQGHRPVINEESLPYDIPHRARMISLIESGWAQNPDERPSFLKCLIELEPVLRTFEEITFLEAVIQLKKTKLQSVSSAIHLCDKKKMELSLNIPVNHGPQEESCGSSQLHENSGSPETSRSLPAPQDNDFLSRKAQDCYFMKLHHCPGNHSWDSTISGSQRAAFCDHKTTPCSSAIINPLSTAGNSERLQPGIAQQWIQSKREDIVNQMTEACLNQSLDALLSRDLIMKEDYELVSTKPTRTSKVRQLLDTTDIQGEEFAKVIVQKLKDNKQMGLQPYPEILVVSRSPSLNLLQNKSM

Consider `CNC(=O)c1ccc2nccc(Oc3cc(F)c(CC(=O)Nc4cnn(C(C)(C)C)c4)cc3Cl)c2c1` [Compound 498, 4-(4-(2-((1-(tert-butyl)-1H-pyrazol-4-yl)amino)-2-oxoethyl)-2-chloro-5-fluorophenoxy)-N-methylquinoline-6-carboxamide], for which the pIC50 in the experiment on human NOD2 signaling was 9.40; in experiment [1], 7.86; at RIPK2 enzyme it was more than 8.60.
For `Cc1cc(CC(=O)Nc2cnn(C34CC(C3)C4)c2)ccc1Oc1ccnc2ccc(C(N)=O)cc12` [Compound 499, 4-(4-(2-((1-(bicyclo[1.1.1]pentan-1-yl)-1H-pyrazol-4-yl)amino)-2-oxoethyl)-2-methylphenoxy)quinoline-6-carboxamide], in that order: 8.96, 7.66 and more than 8.60.
`CNC(=O)c1ccc2nccc(Oc3ccc(CC(=O)Nc4cnn(C56CC(C5)C6)c4)cc3C)c2c1` [Compound 500, 4-(4-(2-((1-(bicyclo[1.1.1]pentan-1-yl)-1H-pyrazol-4-yl)amino)-2-oxoethyl)-2-methylphenoxy)-N-methylquinoline-6-carboxamide]: the pIC50 is 9.40 in the experiment with human NOD2 signaling, 8.13 in experiment [1] and more than 8.60 on RIPK2 enzyme.
The matching figures for `Cc1cc(CC(=O)Nc2cnn(C34CC(C3)C4)c2)c(F)cc1Oc1ccnc2ccc(C(N)=O)cc12` [Compound 501, 4-(4-(2-((1-(bicyclo[1.1.1]pentan-1-yl)-1H-pyrazol-4-yl)amino)-2-oxoethyl)-5-fluoro-2-methylphenoxy)quinoline-6-carboxamide]: 8.66, 7.20 and more than 8.60.
As to `CNC(=O)c1ccc2nccc(Oc3cc(F)c(CC(=O)Nc4cnn(C56CC(C5)C6)c4)cc3C)c2c1` [Compound 502, 4-(4-(2-((1-(bicyclo[1.1.1]pentan-1-yl)-1H-pyrazol-4-yl)amino)-2-oxoethyl)-5-fluoro-2-methylphenoxy)-N-methylquinoline-6-carboxamide], the pIC50 was 9.10 in the experiment on human NOD2 signaling, 7.76 in experiment [1] and more than 8.60 on RIPK2 enzyme.
As for `Cc1c(Oc2ccnc3ccc(C(N)=O)cc23)cc(F)c(CC(=O)Nc2cnn(C(C)(C)C)c2)c1F` [Compound 503, 4-(4-(2-((1-(tert-butyl)-1H-pyrazol-4-yl)amino)-2-oxoethyl)-3,5-difluoro-2-methylphenoxy)quinoline-6-carboxamide], the results for the pIC50 (in the experiment on human NOD2 signaling; in experiment [1]; on RIPK2 enzyme) were 9.70, 7.20 and more than 8.60, respectively.
The matching figures for `CNC(=O)c1ccc2nccc(Oc3cc(F)c(CC(=O)Nc4cnn(C(C)(C)C)c4)c(F)c3C)c2c1` [Compound 504, 4-(4-(2-((1-(tert-butyl)-1H-pyrazol-4-yl)amino)-2-oxoethyl)-3,5-difluoro-2-methylphenoxy)-N-methylquinoline-6-carboxamide]: 9.70, 8.47 and more than 8.60.
The matching figures for `Cc1cc(CC(=O)Nc2cnn(C(C)(C)C)c2)cc(C)c1Oc1ccnc2ccc(C(N)=O)cc12` [Compound 505, 4-(4-(2-((1-(tert-butyl)-1H-pyrazol-4-yl)amino)-2-oxoethyl)-2,6-dimethylphenoxy)quinoline-6-carboxamide]: 8.46, 6.89 and more than 8.60.
Take `CNC(=O)c1ccc2nccc(Oc3c(C)cc(CC(=O)Nc4cnn(C(C)(C)C)c4)cc3C)c2c1` [Compound 506, 4-(4-(2-((1-(tert-butyl)-1H-pyrazol-4-yl)amino)-2-oxoethyl)-2,6-dimethylphenoxy)-N-methylquinoline-6-carboxamide]: the pIC50 is 8.66 in the experiment on human NOD2 signaling, 7.13 in experiment [1] and more than 8.60 at RIPK2 enzyme.
In the case of `NC(=O)c1ccc2nccc(Oc3cc(F)c(CC(=O)Nc4cnn(C56CC(C5)C6)c4)cc3Cl)c2c1` [Compound 509, 4-(4-(2-((1-(bicyclo[1.1.1]pentan-1-yl)-1H-pyrazol-4-yl)amino)-2-oxoethyl)-2-chloro-5-fluorophenoxy)quinoline-6-carboxamide], the pIC50 with human NOD2 signaling is 7.85; in experiment [1], 6.72; at RIPK2 enzyme it was more than 8.60.
Turning to `CNC(=O)c1ccc2nccc(Oc3cc(F)c(CC(=O)Nc4cnn(C56CC(C5)C6)c4)cc3Cl)c2c1` [Compound 510, 4-(4-(2-((1-(bicyclo[1.1.1]pentan-1-yl)-1H-pyrazol-4-yl)amino)-2-oxoethyl)-2-chloro-5-fluorophenoxy)-N-methylquinoline-6-carboxamide], the pIC50 in the experiment with human NOD2 signaling is 8.08; in experiment [1] it was 6.76; on RIPK2 enzyme, more than 8.60.
Regarding `Cc1cc(CC(=O)Nc2cnn(C(C)(C)C)c2)c(F)cc1Oc1ccnc2ccc(C(=O)NC34CC(C3)C4)cc12` [Compound 513, N-(bicyclo[1.1.1]pentan-1-yl)-4-(4-(2-((1-(tert-butyl)-1H-pyrazol-4-yl)amino)-2-oxoethyl)-5-fluoro-2-methylphenoxy)quinoline-6-carboxamide], the values for the pIC50 (in the experiment with human NOD2 signaling; in experiment [1]; at RIPK2 enzyme) were 8.51, 7.46 and more than 8.60, respectively.
The matching figures for `CNC(=O)c1ccc2nccc(Oc3c(C)cc(CC(=O)Nc4cnn(C(C)(C)C)c4)cc3Cl)c2c1` [Compound 515, 4-(4-(2-((1-(tert-butyl)-1H-pyrazol-4-yl)amino)-2-oxoethyl)-2-chloro-6-methylphenoxy)-N-methylquinoline-6-carboxamide]: 8.85, 6.77 and more than 8.60.
For `Cc1cc(CC(=O)Nc2cnn(C(C)(C)C)c2)cc(Cl)c1Oc1ccnc2ccc(C(N)=O)cc12` [Compound 516, 4-(4-(2-((1-(tert-butyl)-1H-pyrazol-4-yl)amino)-2-oxoethyl)-2-chloro-6-methylphenoxy)quinoline-6-carboxamide], in that order: 9.00, 6.99 and more than 8.60.
The matching figures for `CC1(NC(=O)c2ccc3nccc(Oc4cc(F)c(CC(=O)Nc5cnn(C(C)(C)C)c5)cc4Cl)c3c2)CC1` [Compound 517, 4-(4-(2-((1-(tert-butyl)-1H-pyrazol-4-yl)amino)-2-oxoethyl)-2-chloro-5-fluorophenoxy)-N-(1-methylcyclopropyl)quinoline-6-carboxamide]: 8.57, 6.51 and more than 8.60.
For the compound `Cc1c(CC(=O)Nc2cnn(C(C)(C)C)c2)ccc(Oc2ccnc3ccc(S(C)(=O)=O)cc23)c1C` [Compound 518, N-(1-(tert-butyl)-1H-pyrazol-4-yl)-2-(2,3-dimethyl-4-((6-(methylsulfonyl)quinolin-4-yl)oxy)phenyl)acetamide], the pIC50 with human NOD2 signaling is 8.82; in experiment [1] it was 7.57; at RIPK2 enzyme, more than 8.60.
`Cc1cc(CC(=O)Nc2cnn(C(C)(C)C)c2)c(F)cc1Oc1ccnc2ccc(-c3nccnc3C(F)(F)F)cc12` [Compound 523, N-(1-(tert-butyl)-1H-pyrazol-4-yl)-2-(2-fluoro-5-methyl-4-((6-(3-(trifluoromethyl)pyrazin-2-yl)quinolin-4-yl)oxy)phenyl)acetamide]: the pIC50 in the experiment on human NOD2 signaling was 7.73; in experiment [1], 6.88; on RIPK2 enzyme it was 8.31.
Regarding `Cc1c(Oc2ccnc3ccc(C(N)=O)cc23)cc(F)c(CC(=O)Nc2cnn(C34CC(C3)C4)c2)c1F` [Compound 556, 4-(4-(2-((1-(bicyclo[1.1.1]pentan-1-yl)-1H-pyrazol-4-yl)amino)-2-oxoethyl)-3,5-difluoro-2-methylphenoxy)quinoline-6-carboxamide], the pIC50 was 9.05 with human NOD2 signaling, 7.38 in experiment [1] and more than 8.60 on RIPK2 enzyme.
